Assay results from the NIST ThermoML archive (doi:10.1021/acs.jced.8b00132).
Several values for one entry are separate records, joined by “and”; a condition that tells them apart may be missing. Equal values may be shown once.

O=C(C(F)(F)C(F)(F)F)C(F)(C(F)(F)F)C(F)(F)F [dodecafluoro-2-methylpentan-3-one]
Settings	thermal conductivity
330 K, 67724 kPa, Liquid, transient hot wire	0.07584 W/m/K
330.01 K, 117 kPa, Gas, hot wire	0.01411 W/m/K
330.01 K, 14125 kPa, Liquid, transient hot wire	0.05895 W/m/K
330.01 K, 14129 kPa, Liquid, transient hot wire	0.05898 W/m/K
330.02 K, 117 kPa, Gas, hot wire	0.01412 W/m/K
330.02 K, 36718 kPa, Liquid, transient hot wire	0.0672 W/m/K
330.02 K, 36720 kPa, Liquid, transient hot wire	0.06721 W/m/K
330.06 K, 57396 kPa, Liquid, transient hot wire	0.07315 W/m/K
330.06 K, 57404 kPa, Liquid, transient hot wire	0.07318 W/m/K
330.09 K, 27942 kPa, Liquid, transient hot wire	0.06426 W/m/K
330.09 K, 27945 kPa, Liquid, transient hot wire	0.06429 W/m/K
330.1 K, 8617 kPa, Liquid, transient hot wire	0.05649 W/m/K
330.1 K, 8619 kPa, Liquid, transient hot wire	0.0565 W/m/K
330.14 K, 4470 kPa, Liquid, transient hot wire	0.05444 W/m/K
330.14 K, 46576 kPa, Liquid, transient hot wire	0.07022 W/m/K
330.14 K, 46583 kPa, Liquid, transient hot wire	0.07015 W/m/K
330.15 K, 4473 kPa, Liquid, transient hot wire	0.05441 W/m/K
330.16 K, 20517 kPa, Liquid, transient hot wire	0.06186 W/m/K
330.16 K, 20518 kPa, Liquid, transient hot wire	0.06149 W/m/K
330.19 K, 67678 kPa, Liquid, transient hot wire	0.07583 W/m/K
330.2 K, 67695 kPa, Liquid, transient hot wire	0.07583 W/m/K
330.21 K, 178 kPa, Liquid, transient hot wire	0.05173 W/m/K
330.22 K, 178 kPa, Liquid, transient hot wire	0.05205 W/m/K
330.23 K, 180 kPa, Liquid, transient hot wire	0.05206 W/m/K
330.23 K, 36712 kPa, Liquid, transient hot wire	0.06716 W/m/K
330.23 K, 36715 kPa, Liquid, transient hot wire	0.06712 W/m/K
330.24 K, 180 kPa, Liquid, transient hot wire	0.05202 W/m/K
330.24 K, 14124 kPa, Liquid, transient hot wire	0.05892 W/m/K
330.24 K, 14130 kPa, Liquid, transient hot wire	0.05892 W/m/K
330.26 K, 57370 kPa, Liquid, transient hot wire	0.07313 W/m/K
330.26 K, 57385 kPa, Liquid, transient hot wire	0.07314 W/m/K
330.31 K, 27940 kPa, Liquid, transient hot wire	0.06422 W/m/K
330.31 K, 27943 kPa, Liquid, transient hot wire	0.06422 W/m/K
330.33 K, 8610 kPa, Liquid, transient hot wire	0.05657 W/m/K
330.33 K, 8620 kPa, Liquid, transient hot wire	0.05647 W/m/K
330.35 K, 46566 kPa, Liquid, transient hot wire	0.07011 W/m/K
330.35 K, 46569 kPa, Liquid, transient hot wire	0.07013 W/m/K
330.38 K, 4468 kPa, Liquid, transient hot wire	0.05439 W/m/K
330.39 K, 4469 kPa, Liquid, transient hot wire	0.0544 W/m/K
330.39 K, 20517 kPa, Liquid, transient hot wire	0.06147 W/m/K
330.4 K, 20518 kPa, Liquid, transient hot wire	0.06147 W/m/K
330.45 K, 36702 kPa, Liquid, transient hot wire	0.06713 W/m/K
330.45 K, 36716 kPa, Liquid, transient hot wire	0.06714 W/m/K
330.46 K, 179 kPa, Liquid, transient hot wire	0.052 W/m/K
330.47 K, 179 kPa, Liquid, transient hot wire	0.05202 W/m/K
330.48 K, 180 kPa, Liquid, transient hot wire	0.05201 W/m/K
330.48 K, 181 kPa, Liquid, transient hot wire	0.052 W/m/K
330.48 K, 14128 kPa, Liquid, transient hot wire	0.05889 W/m/K
330.48 K, 14134 kPa, Liquid, transient hot wire	0.05891 W/m/K
330.53 K, 27942 kPa, Liquid, transient hot wire	0.0642 W/m/K
330.54 K, 27944 kPa, Liquid, transient hot wire	0.06418 W/m/K
330.58 K, 8615 kPa, Liquid, transient hot wire	0.0564 W/m/K
330.58 K, 8617 kPa, Liquid, transient hot wire	0.05641 W/m/K
330.63 K, 4467 kPa, Liquid, transient hot wire	0.05435 W/m/K
330.63 K, 20513 kPa, Liquid, transient hot wire	0.06146 W/m/K
330.64 K, 4463 kPa, Liquid, transient hot wire	0.05433 W/m/K
330.64 K, 20514 kPa, Liquid, transient hot wire	0.06146 W/m/K
330.73 K, 179 kPa, Liquid, transient hot wire	0.05196 W/m/K and 0.05197 W/m/K
330.73 K, 181 kPa, Liquid, transient hot wire	0.05196 W/m/K and 0.05215 W/m/K
330.73 K, 14130 kPa, Liquid, transient hot wire	0.05885 W/m/K
330.74 K, 14134 kPa, Liquid, transient hot wire	0.0589 W/m/K
330.84 K, 8608 kPa, Liquid, transient hot wire	0.05637 W/m/K
330.84 K, 8609 kPa, Liquid, transient hot wire	0.05639 W/m/K
330.91 K, 4465 kPa, Liquid, transient hot wire	0.05432 W/m/K and 0.0543 W/m/K
331.01 K, 179 kPa, Liquid, transient hot wire	0.05176 W/m/K and 0.05194 W/m/K
331.01 K, 180 kPa, Liquid, transient hot wire	0.05194 W/m/K
331.01 K, 181 kPa, Liquid, transient hot wire	0.05193 W/m/K
331.09 K, 3942 kPa, Liquid, transient hot wire	0.05385 W/m/K
331.1 K, 3945 kPa, Liquid, transient hot wire	0.05411 W/m/K
331.21 K, 28078 kPa, Liquid, transient hot wire	0.06464 W/m/K
331.22 K, 20447 kPa, Liquid, transient hot wire	0.06133 W/m/K
331.22 K, 28080 kPa, Liquid, transient hot wire	0.06416 W/m/K
331.23 K, 20449 kPa, Liquid, transient hot wire	0.06095 W/m/K
331.24 K, 14112 kPa, Liquid, transient hot wire	0.05849 W/m/K
331.25 K, 14113 kPa, Liquid, transient hot wire	0.05865 W/m/K
331.28 K, 8580 kPa, Liquid, transient hot wire	0.05626 W/m/K
331.28 K, 8582 kPa, Liquid, transient hot wire	0.05648 W/m/K
331.31 K, 242 kPa, Liquid, transient hot wire	0.05138 W/m/K and 0.05151 W/m/K
331.36 K, 73 kPa, Liquid, transient hot wire	0.05184 W/m/K
331.36 K, 69235 kPa, Liquid, transient hot wire	0.07553 W/m/K
331.36 K, 69237 kPa, Liquid, transient hot wire	0.07531 W/m/K
331.37 K, 107 kPa, Liquid, transient hot wire	0.05182 W/m/K
331.37 K, 57734 kPa, Liquid, transient hot wire	0.07228 W/m/K
331.37 K, 57739 kPa, Liquid, transient hot wire	0.07238 W/m/K
